Molecules are shown by their SMILES. In brackets after ≈: the same amount, converted by molar mass. Entries after “also recorded” stand apart in the source; their conditions may differ. Where two headings read alike, the source gives them in different places.

One data set has as its system fathead minnow. The following applies: cited from earlier work; for LC50: fathead minnow ref 27.
For the next data set, the system named is zebrafish embryo. The following applies: cited from earlier work.
For data set [1] the following is noted: source not given; cited from earlier work.
Data set [2] deals with gfp, adh8a, adh8b mRNA injected zebrafish embryos. Put plainly: Zebrafish embryo test after microinjection of gfp, adh8a, adh8b or adh8a/b mRNA. In kind it is in vivo, zebrafish (Danio rerio). The settings on record: for increase in acute toxicity in response to injection of adh8 mRNA: gfp, adh8a, adh8b, adh8a/b mRNA injected embryos. On the procedure: (§1) The zebrafish embryo test was performed with few modifications according to a standard operation procedure and a static exposure setup without renewal of exposure solutions (ISO 15088, 2006). The following chemicals were used: Allyl alcohol (CAS 107-18-6, purity 99.8%, Sigma-Aldrich, Deisenhofen, Germany), acrolein (CAS 107-02-8, purity ≥99.0%, Sigma-Aldrich, Deisenhofen, Germany), 4-Nitrophenol (CAS 100-02-7, PESTANAL, analytical standard, Sigma-Aldrich, Deisenhofen, Germany), and ethanol (CAS 64-17-5, purity ≥ 99.5%, Carl Roth, Germany). Stock solutions were prepared for each experiment by adding the appropriate amount for the highest test concentration to the exposure media (294.0 mg/L CaCl2*2H2O, 123.3 mg/L MgSO4*7H2O, 64.7 mg/L NaHCO3, 5.7 mg/L KCl). The solutions were prepared one day before the experiment in 100 ml closed graduated flasks and were stirred over night for approximately 14 h. Lower concentrations were obtained by serial dilutions. Fertilized eggs (embryos at 4–32 cell stage) were transferred by a pipette to 24-well plates (1 embryo per well, 10 wells per exposure concentration, Cellstar Greiner Bio-One, Frickenhausen, Germany) or crystallization glass dishes (80 mm diameter, 10–20 embryos per vial and 30 ml of exposure medium), respectively. Exposures were performed in independent triplicates on different days for 48 h from 2-50 hpf (hours post fertilization), 24–72 hpf, and 72–120 hpf. For the 24–72 hpf exposure, part of the embryos were manually dechorionated using forceps. […] At either 2, 8, 24 or 72 hpf the medium was completely removed and replaced by exposure media containing different concentrations of allyl alcohol (2 ml per well or 30 ml per crystallization dish, respectively). The Henry's law coefficients of the test chemicals (allyl alcohol: 4.99*10^−6, ethanol: 5.62*10^−6, 4-nitrophenol: 4.15*10^−10, acrolein: 1.22*10^−4; atm*m^3/mol) indicate a weak volatility for ethanol, allyl alcohol and acrolein. Therefore, in order to reduce potential evaporation, 24-well plates were covered with an adhesive foil; crystallization dishes were covered with a household plastic wrap and watch glasses. For comparison of the LC50 at different stages and the effect of dechorionation, exposure was performed in 24-well plates. For gene expression analysis and microinjection experiments crystallization dishes were used for exposure.
(§2) After 48 h of exposure referring to 50, 72 or 120 hpf stages, the number of dead embryos was counted. Dead embryos were detected according to the criteria given in the ISO standard; i.e., either coagulation, missing heartbeat, failure to develop somites or a lack of detachment of the tail-bud from the yolk sac were considered as indicators of lethality.
(§3) Injection needles were pulled from borosilicate glass capillary tubes with filament (GC100F-10; Warner Instruments, LLC, Hamden, CT) using a Narishige micropipette puller (Tokyo, Japan). Embryos were injected with the Eppendorf FemtoJet (Hamburg, Germany) through the chorion into the yolk compartment at the one-cell stage.
(§4) Plasmids with either the cDNA sequence of adh8a or adh8b were purchased from ImaGenes (Berlin, Germany, clone numbers IRBOp991G0334D for adh8a and IRBOp991F02101D for adh8b). The GFP open reading frame was cloned into the pCS2p+ Vector. For synthesis of capped mRNAs, adh8 plasmids were cut with XhoI and pCS2P+GFP was cut with KpnI. 5′ capped mRNA was synthesized with the mMessage Machine SP6 Kit (Life Technologies/Ambion, Darmstadt, Germany) according to the manufacturer's instructions. Injected mRNA concentration was 20–50 ng/µl. Phenol red was added to the RNA samples before injection (0.1% final concentration) in order to allow tracking of successful injections.
(§5) The LC50 values ± asymmetric 95% confidence intervals were calculated using the software JMP (SAS, Cary, NC) using the Hill-slope equation for modeling of concentration-response curves: [drawing 1] […]

The test system of another data set is zebrafish embryos. Put plainly: Zebrafish embryo test (acute lethality, 48 h static exposure), non-injected embryos. In kind it is in vivo, zebrafish (Danio rerio). Here is the method: as §1, §2
The LC50 values ± asymmetric 95% confidence intervals were calculated using the software JMP (SAS, Cary, NC) using the Hill-slope equation for modeling of concentration-response curves: [drawing 1]
Min and Max were set to 0 and 100%, respectively. x and y represented the nominal exposure concentration and the survival rate (percentage).

Data set [3] is described as follows: Quantification of internal allyl alcohol concentration in mRNA-injected embryos by HS-GC-MS. In kind it is in vivo, zebrafish (Danio rerio). Here is the method: 50 injected embryos were exposed from 8 hpf to 26 hpf with 0.5 or 1 mg/L allyl alcohol. At 26 hpf embryos were manually dechorionated using forceps and transferred into fresh 20 ml glass vials. The exposure medium was removed and embryos were rinsed twice with 2 ml ISO water for 30 sec, transferred into GC-MS headspace vials (Agilent Technologies, Böblingen, Germany). After removal of remaining fluid by using a microliter pipette the vials were closed and embryos were frozen at −20°C for 10 min. Subsequently, embryos were homogenized by 5 min sonication in an ultrasonic bath (Sonorex RK 512 H; Bandelin Electronic, 35 kHz). Chemical analyses were performed immediately after sonication using an Agilent 7890A gas chromatograph with headspace sampler G1888 (Agilent Technologies, Böblingen, Germany). The headspace oven temperature for equilibration of samples was set to 48°C for 10 min. The compound separation was performed using a capillary column (60 m×0.25 i.d.) with a nonpolar stationary phase HP1 (thickness 1.00 µm). Ultra high purity helium was used as carrier gas. Mass spectra were derived with Agilent 5975C inert XL MSD and Triple Axis Detector (Agilent Technologies,) in electron impact ionization mode 70eV. The detector conditions were: ion source temperature 230°C and quadrupole temperature 150°C. The column oven temperature program involved an initial temperature of 45°C for 1 min, an increase at 15°C/min to 150°C (held for 2 min), then an increase at 65°C/min to 250°C (held 0.5 min). The mass spectrometer was operated in selected ion monitoring (SIM) mode for calibration and analyte quantification in samples.
For the allyl alcohol calibration the following concentrations were used: 8.5; 42.5; 85; 425; 850 and 1700 µg/L. 5 µl of the respected concentration were transferred into a headspace vial and directly used for HS-GC-MS analysis. The calibration curve was generated based on peak areas. Exposure concentrations were determined for each replicate at the start of the exposure.

The next data set relates to adult zebrafish. Also noted: method as in PMID 22835061. The following applies: adult zebrafish ref 18; cited from earlier work.
On the set-up of data set [4]: method as in PMID 22835061. The following applies: cited from earlier work; for measured concentration as % of nominal concentration: 24-well plates ref 18.
The test system of data set [5] is adh8a mRNA injected zebrafish embryos. Put plainly: Time-lapse recording of adh8a mRNA injected embryos exposed to allyl alcohol. The settings on record: 5 mg/L allyl alcohol, 24-wells. In kind it is in vivo. Here is the method:
For time lapse recording of zebrafish embryos were performed using a Leica DMI4000 B inverted microscope (Leica, Wetzlar, Germany), equipped with a digital camera (DFC 350FX; Leica) and 5× objective (HCX PL FLUOTAR, 5.0×0.15 DRY). adh8a mRNA injected were exposed to 5mg/L allyl alcohol in 24-well plates (2 embryos per 2 ml). A constant temperature of 26°C was maintained with a heated stage insert. Embryos were imaged by bright filed every 20 min for 20 h. Images were analyzed using LAS AF software (Leica, Wetzlar, Germany). Video was exported using 3 frames per second.

Data set [6] in a line: Zebrafish embryo test after microinjection of gfp, adh8a, adh8b or adh8a/b mRNA. The settings on record: OBI, zebrafish, in vivo, other: static waterborne exposure in exposure medium, exposure 8-56 h, with chorion, crystallization dish, strain OBI. In kind it is in vivo, zebrafish (Danio rerio). On the procedure:
as §1, §2, §3, §4, §5

The mark [7] stands for this setting: adh8a mRNA injected, exposure 8-56 h, with chorion, crystallization dish, strain OBI.
Setting [8] is: adh8b mRNA injected, exposure 8-56 h, with chorion, crystallization dish, strain OBI.
The mark [9] stands for this setting: gfp mRNA injected, exposure 8-56 h, with chorion, crystallization dish, strain OBI.

Turning to `CC=O` [acetaldehyde], the “fold higher toxicity compared to the parent compound ethanol” value was “about 435 fold” in the data set on fathead minnow (adult fish ref 27) and around 720 fold in the data set on zebrafish embryo (zebrafish embryo ref 25).

Regarding `CCO` [ethanol], the “Henry's law coefficient” value in [1] is listed as 5.62*10^−6 atm*m^3/mol. Further, the LC50 – broadly, the concentration lethal to half of the exposed cells or organisms – in [2] (setting [7]) was 18570 µg/mL; in data set [2] (adh8a/b mRNA injected, exposure 8-56 h, with chorion, crystallization dish, strain OBI), 17780 µg/mL; in [2] (setting [8]) it was 16310 µg/mL; in [2] (setting [9]) it was 19170 µg/mL; with fathead minnow (adult fish) it was 14700 µg/mL (≈ 319000 µM). Also, the “increase in acute toxicity in response to injection of adh8 mRNA” value in data set [2] was “did not detect any increase”.

In the case of `C=CC=O` [acrolein], the “Henry's law coefficient” value in data set [1] was 1.22*10^−4 atm*m^3/mol. In the data set with zebrafish embryos (exposure 2-50 hpf, with chorion, no mRNA injected, 24-well plates, strain OBI, n = 1), this molecule displayed an LC50 of 0.42 µg/mL. Besides, the “fold lower LC50 of acrolein compared with allyl alcohol” value in the data set on zebrafish embryos (zebrafish embryos, 2-50 hpf) was around 1000 fold. In [3] (adh8a injected embryos exposed to allyl alcohol), the “acrolein detection in GC/MS chromatograms” value is “could not detect acrolein”.

Take `C=CCO` [allyl alcohol, Allyl alcohol]: the “Henry's law coefficient” value in data set [1] is recorded as 4.99*10^−6 atm*m^3/mol. The LC50 worked out at 0.0134 mM in data set [2] (adh8a mRNA injected embryos, read-out: LC50); 0.78 µg/mL in data set [2] (setting [7]); 2.11 µg/mL in data set [2] (adh8a/b mRNA (1:1) injected, exposure 8-56 h, with chorion, crystallization dish, strain OBI); 166 µg/mL in [2] (setting [8]); 436 µg/mL in data set [2] (setting [9]); 8.2 mM in the data set on zebrafish embryos (exposure 2-50 hpf, non-injected, read-out: LC50). Moreover, the LC50 came out at 478 µg/mL in the data set with zebrafish embryos (exposure 2-50 hpf, with chorion, no mRNA injected, 24-well plates, strain WIK); 328 µg/mL in the data set with zebrafish embryos (exposure 8-56 h, with chorion, non-injected control, crystallization dish, strain OBI); 7.7 mM in the data set on zebrafish embryos (exposure 24-72 hpf, with chorion (value paired with 451 mg/L), read-out: LC50); 451 µg/mL with zebrafish embryos (exposure 24-72 hpf, with chorion, no mRNA injected, 24-well plates, strain WIK); 492 µg/mL with zebrafish embryos (exposure 24-72 hpf, without chorion (manually removed), no mRNA injected, 24-well plates, strain WIK); 8.5 mM with zebrafish embryos (exposure 24-72 hpf, without chorion (value paired with 492 mg/L), read-out: LC50). The LC50 was 157 µg/mL with zebrafish embryos (exposure 72-120 hpf, hatched, no mRNA injected, 24-well plates, strain WIK); 159 µg/mL in the data set on zebrafish embryos (exposure 72-120 hpf, hatched, no mRNA injected, 24-well plates, strain WIK, listed as Allyl alcohol); 2.7 mM in the data set with zebrafish embryos (exposure 72-120 hpf, read-out: LC50). For the same molecule, the “fold reduction of LC50 by adh8b mRNA injection” value in data set [2] (adh8b mRNA injections) is recorded as 2.5 fold. For the same molecule, the “fold reduction of LC50 by adh8a mRNA injection” value in [2] (compared to gfp-injected or non-injected embryos) was “more than 500 fold”. In addition, the “fold lower LC50 for exposure from 72-120 hpf compared with earlier stages” value with zebrafish embryos (72-120 hpf vs earlier exposure periods) is 3 fold. Besides, in the data set with zebrafish embryos (48 h exposures), the “sublethal malformations in exposed embryos” value is listed as “No sublethal malformations were observed”. Moreover, the “time to coagulation of the embryos” value in the data set on zebrafish embryos (toxic concentration) is at most 24 h; in data set [5], 3 to 9 h. The “fold higher toxic concentrations (lower toxicity) in embryos compared to adult fish” value in the data set on zebrafish embryos (zebrafish embryos vs adult fish) is recorded as “about 1000 fold”. For the same molecule, the “LC50 (adult fish)” value in the data set on adult zebrafish was 0.28 µg/mL (≈ 4.82 µM). In addition, the “toxicity level (LC50) in adult fish” value with fathead minnow (fathead minnow ref 19) was 0.32 µg/mL. Moreover, the “allyl alcohol detection in embryos by GC-MS” value in [3] (adh8a mRNA injected embryos) is “no allyl alcohol was found; also recorded: below the limit of detection”. Besides, in data set [3] (adh8a mRNA injected, 0.5 mg/L nominal, 8-26 hpf, Repl. 1-3, n.d. = not detectable), the “internal allyl alcohol concentration” value turned out to be 0 pg/embryo. Also, the “internal allyl alcohol level (below the limit of detection)” value in data set [3] (adh8a-injected embryos) was below 4.6 µg/L. Further, the “internal allyl alcohol concentration (range)” value in data set [3] (before decline in adh8a-injected embryos) is recorded as 0.23-58 ng/embryo. Besides, the “measured concentration as % of nominal concentration” value in [4] (0 h) was “about 80%”; in data set [4] (within 48 h of exposure) it was “about 28%”. Also, the “geometric mean of measured concentrations as % of nominal concentration” value in data set [4] (24-well plates, 48 h ref 18) was 47%.

As for `O=[N+]([O-])c1ccc(O)cc1` [4-Nitrophenol], in data set [1], the “Henry's law coefficient” value is recorded as 4.15*10^−10 atm*m^3/mol. Also, the “increase in acute toxicity in response to injection of adh8 mRNA” value in data set [2] was “did not detect any increase”. Also, the LC50 in [6] (adh8a mRNA injected) was 9.65 µg/mL (≈ 69.4 µM); in [6] (adh8a/b mRNA (1:1) injected), 10.2 µg/mL (≈ 73.4 µM); in [6] (adh8b mRNA injected) it was 9.79 µg/mL (≈ 70.4 µM); in [6] (gfp mRNA injected), 9.45 µg/mL (≈ 67.9 µM); in the data set with fathead minnow, 44.8 µg/mL (≈ 322 µM); in the data set on zebrafish embryo (zebrafish embryo ref unpublished data), 12.0 µg/mL (≈ 86.3 µM).

(Values after article PMC3940891, “Transient Overexpression of adh8a Increases Allyl Alcohol Toxicity in Zebrafish Embryos” (PLoS ONE, 2014).)
